Experimental data reported in US12649726B2, “Substituted tetrahydroisoquinoline derivative as a D1 positive allosteric modulator” (UCB Biopharma SRL, priority 2020, dated 2026).
Values joined by “and” are separate entries in the source; they are usually repeats but may differ in a detail not shown here. Equal values may be shown once.

How the values were obtained:
Format in all cases: cell-based
dopamine D1 receptor [1] = molecular target: T1, dopamine D1 receptor (Homo sapiens, UniProt P21728); experiment: cAMP HTRF activation assay (absence of dopamine); details: 10 μM compound, LMtk (Ltk−) cells expressing D1, read-out: activation (compared to dopamine maximal response)
T1 construct: host or cells: LMtk (Ltk−) mouse fibroblast cells
From the text: (§1) Assays have been designed to measure the effects of compounds in accordance with the present invention in the absence of dopamine (“activation assay”) and in the presence of dopamine (“potentiation assay”).
The activation assay measures the stimulation of the production of cyclic adenosinemonophosphate (cAMP) in the Homogeneous Time Resolved Fluorescent (HTRF) assay, with the maximum increase in cAMP by increasing concentrations of the endogenous agonist, dopamine, defined as 100% activation.
(§2) Cells were cultured at 37° C. in a humidified atmosphere of 5% CO2. […]
The measurement of changes in intracellular cyclic adenosinemonophopshpate (cAMP) was determined using the HTRF cAMP dynamic assay kit from CisBio (Codolet, France). Using homogenous time-resolved fluorescence technology, the assay is based on competition between native cAMP produced by cells and cAMP labelled with the dye d2. The tracer binding is determined by an anti-cAMP antibody labeled with cryptate. The effects of the compound alone (agonism) was determined by performing the assay in the absence of dopamine, whilst the effect of the compound as a positive allosteric modulator (PAM) was determined in the presence of an EC20 concentration of dopamine. […]

[2] = molecular target: T2, human GABAA receptor α1,β2 and γ2 subunits (Homo sapiens, UniProt P14867+P18507+P47870); experiment: Automated patch clamp GABAA receptor inhibition assay (IonFlux HT); details: 10 μM compound, 15 μM GABA, CHO-K1 cells, holding potential −60 mV; read-out: percentage of inhibition of the GABAA receptor
T2 construct: expressed in transfected cells; host or cells: CHO-K1 cells
Procedure: CHO-K1 cells stably expressing human GABAA receptor α1,β2 and γ2 subunits were used. The cells were harvested using trypsin and maintained in serum-free medium at room temperature. The cells were washed and re-suspended in extracellular solution before testing.
Experiments on human GABAA (α1β2γ2) channels were conducted using an automated patch clamp assay (IonFlux™ HT). Compounds were tested at 3 concentrations (0.1, 1, and 10 μM) in 3 to 4 cells. The external solution for recording GABAA currents was composed of sodium chloride 137 mM, potassium chloride 4 mM, calcium chloride 1.8 mM, magnesium chloride 1 mM, HEPES 10 mM, and glucose 10 mM. Both external and internal solutions were titrated with NaOH or KOH to obtain a pH of 7.35 or 7.3, respectively. The internal pipette solution contained potassium fluoride 70 mM, potassium chloride 60 mM, sodium chloride 70 mM, HEPES 5 mM, EGTA 5 mM, and Magnesium ATP 4 mM. The final concentration of vehicle used to dilute compounds was 0.33% DMSO in each well. Bicuculline (0.032 to 100 μM) was used as positive control inhibitor. GABA (15 μM) was used as agonist. […]
The compound addition sequence was the following: one addition of the EC80 concentration of GABA was added to establish baseline response. […] Peak inward currents in response to the GABA additions in the presence of a single concentration of compound were measured. […]

dopamine D1 receptor [3] = molecular target: T1, dopamine D1 receptor; experiment: cAMP HTRF potentiation assay (presence of EC20 dopamine)
From the text: as §1
The potentiation assay measures the ability of compounds to increase the levels of cAMP produced by a low-threshold concentration of dopamine. The concentration of dopamine used ([EC20]) is designed to produce 20% stimulation compared to the maximal response (100%) seen with increasing the concentration of dopamine. To measure this potentiation increasing concentrations of the compound with the [EC20] of dopamine are incubated and the potentiation is measured as increases in cAMP production and concentration of compound which produces 50% of the potentiation of the cAMP levels is measured.
as §2
The measurement of changes in intracellular cyclic adenosinemonophopshpate (cAMP) was determined using the HTRF cAMP dynamic assay kit from CisBio (Codolet, France). Using homogenous time-resolved fluorescence technology, the assay is based on competition between native cAMP produced by cells and cAMP labelled with the dye d2. The tracer binding is determined by an anti-cAMP antibody labeled with cryptate. […]

T1 sequence (P21728 whole entry): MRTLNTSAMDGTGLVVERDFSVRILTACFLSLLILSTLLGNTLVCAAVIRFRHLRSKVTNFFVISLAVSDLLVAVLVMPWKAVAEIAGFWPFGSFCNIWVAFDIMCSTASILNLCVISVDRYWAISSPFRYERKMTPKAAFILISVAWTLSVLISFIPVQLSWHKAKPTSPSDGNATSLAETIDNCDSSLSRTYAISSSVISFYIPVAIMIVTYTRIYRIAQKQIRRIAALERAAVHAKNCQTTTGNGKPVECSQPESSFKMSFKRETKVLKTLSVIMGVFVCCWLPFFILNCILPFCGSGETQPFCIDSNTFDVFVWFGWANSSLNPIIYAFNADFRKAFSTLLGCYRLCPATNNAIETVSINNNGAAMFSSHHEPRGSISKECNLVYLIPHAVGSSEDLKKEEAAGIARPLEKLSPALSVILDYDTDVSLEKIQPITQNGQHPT
T2 sequence (P14867 28-456): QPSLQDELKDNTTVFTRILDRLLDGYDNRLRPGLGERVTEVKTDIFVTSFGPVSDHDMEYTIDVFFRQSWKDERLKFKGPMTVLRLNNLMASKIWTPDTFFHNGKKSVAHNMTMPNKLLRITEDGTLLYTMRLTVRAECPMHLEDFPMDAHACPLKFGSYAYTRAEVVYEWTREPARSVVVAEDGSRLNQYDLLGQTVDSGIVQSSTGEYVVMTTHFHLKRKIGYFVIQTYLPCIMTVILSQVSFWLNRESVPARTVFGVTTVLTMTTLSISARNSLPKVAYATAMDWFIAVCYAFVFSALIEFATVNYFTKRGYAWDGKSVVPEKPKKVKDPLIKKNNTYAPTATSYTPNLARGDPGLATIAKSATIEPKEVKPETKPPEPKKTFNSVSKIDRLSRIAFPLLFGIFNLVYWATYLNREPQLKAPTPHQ
T2 sequence (P47870 25-512 limits assumed): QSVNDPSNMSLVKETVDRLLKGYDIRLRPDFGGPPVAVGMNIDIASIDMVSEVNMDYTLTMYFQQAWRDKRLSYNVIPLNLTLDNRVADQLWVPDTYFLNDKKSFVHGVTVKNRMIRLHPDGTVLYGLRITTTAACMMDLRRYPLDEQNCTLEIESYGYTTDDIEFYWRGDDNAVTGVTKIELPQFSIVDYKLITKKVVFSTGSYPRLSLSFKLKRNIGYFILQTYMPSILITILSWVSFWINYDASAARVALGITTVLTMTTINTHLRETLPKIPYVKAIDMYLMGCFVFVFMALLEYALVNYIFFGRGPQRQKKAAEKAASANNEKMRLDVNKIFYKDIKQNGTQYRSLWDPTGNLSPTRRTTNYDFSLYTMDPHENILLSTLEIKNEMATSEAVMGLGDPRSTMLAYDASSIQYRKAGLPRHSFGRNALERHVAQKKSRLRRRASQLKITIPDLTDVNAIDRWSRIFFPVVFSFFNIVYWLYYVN
T2 sequence (P18507 40-475): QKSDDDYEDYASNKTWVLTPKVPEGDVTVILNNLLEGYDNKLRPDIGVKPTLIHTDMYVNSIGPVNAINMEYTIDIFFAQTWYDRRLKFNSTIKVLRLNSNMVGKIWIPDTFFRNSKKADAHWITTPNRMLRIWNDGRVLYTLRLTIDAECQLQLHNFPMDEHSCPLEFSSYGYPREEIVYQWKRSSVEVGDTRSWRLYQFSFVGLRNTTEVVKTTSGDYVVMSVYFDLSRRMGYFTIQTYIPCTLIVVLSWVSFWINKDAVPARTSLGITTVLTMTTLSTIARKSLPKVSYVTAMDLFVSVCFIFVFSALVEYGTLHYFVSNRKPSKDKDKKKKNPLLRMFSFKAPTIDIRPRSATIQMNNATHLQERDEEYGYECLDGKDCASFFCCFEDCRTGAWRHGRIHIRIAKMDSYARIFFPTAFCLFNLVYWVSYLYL

## C[C@H]1c2cccc(C(C)(C)O)c2C[C@H](CO)N1C(=O)Cc1c(Cl)ccc2[nH]nc(Cl)c12 [compound of formula (I), 2-(3,5-dichloro-1H-indazol-4-yl)-1-[(1S,3R)-3-(hydroxymethyl)-5-(1-hydroxy-1-methyl-ethyl)-1-methyl-3,4-dihydro-1H-isoquinolin-2-yl]ethanone]
Dopamine D1 receptor [1]
  Emax at 10 µM: < 20%
[2]
  inhibition at 10 µM: < 0.1%
Dopamine D1 receptor [3]; in presence of [EC20] dopamine (1.1 nM), dopamine maximum = 100%
  Erel (relative efficacy, maximal % potentiation vs dopamine maximal response): about 62%
Dopamine D1 receptor [3]; potentiation of cAMP in presence of [EC20] dopamine (1.1 nM), LMtk (Ltk−) cells expressing D1
  EC50: ~6.31 nM and < 31.6 nM
